Data: US6479544B1, “Therapeutic combinations of fatty acids” (Laxdale Limited, priority 2001, dated 2002)
Like-named read-outs stand apart in the source and are kept apart here.

Key:
[1] = test system: patients with schizophrenia; experiment: AA given to two patients who had already been taking EPA; format: in vivo, human; details: AA 1 g/day added in two patients already taking 2 g/day EPA for 3 months
From the text: The conclusion to be drawn from these studies is that EPA is desirable, not in itself but because it raises the AA level in membrane phospholipids. High doses of EPA, far from being valuable in themselves, may be undesirable because they lead to excessive loss of AA from membranes. The way to get around this issue, and to boost the clearly desirable effects of EPA, is to keep to relatively low doses of EPA, but also to boost the level of AA by administering the EPA with either AA or one of its precursors, DGLA or gamma-linolenic acid GLA.

[2] = test system: patients with schizophrenia; experiment: Pilot study of AA alone in five patients with schizophrenia; format: in vivo, human; details: AA given alone
From the text: This interpretation was supported by a pilot study in which AA itself was given to five patients with schizophrenia. […] The administration of AA, without EPA to inhibit phospholipases, may lead to increased formation of eicosanoids rather than to incorporation of AA into phospholipids.

[3] = test system: schizophrenia in patients; experiment: Trial of placebo and three doses of EPA in schizophrenia patients also taking clozapine, assessed by PANSS at baseline and 12 weeks; format: in vivo, human
Experimental: A trial was conducted of the administration of a placebo and three different doses of EPA, 1 g, 2 g and 4 g/day in the treatment of schizophrenia in patients who were also taking the antischizophrenic drug clozapine. […] 31 patents were entered into the study and followed for 12 weeks. They were assessed at baseline and 12 weeks using the Positive and Negative Symptom Scale for Schizophrenia (PANSS). Placebo produced a small effect, 1 g/day produced a larger effect, 2 g/day produced a large effect of 26.0% compared to the usual 15-20% improvements on this scale generated by existing drugs for schizophrenia.

[4] = format: in vivo, human; details: + means a rise, − a fall
Experimental: In these patients, and also in a further series of patients, the levels of DGLA, AA, EPA and DHA were measured in human red cells before starting treatment and after 12 weeks. As expected there was a dose-related rise in EPA which was greater the greater the dose. It was also expected that there would be a progressive decline in AA, the larger the EPA dose, the greater the fall in AA.

SMILES | Condition of patients with schizophrenia [1] | Condition of patients with schizophrenia [2] | Percentage improvement from baseline to 12 weeks on PANSS ([3]; 2 g/day) [%] | Percentage improvement from baseline to 12 weeks on PANSS ([3]; 1 g/day) [%] | Percentage improvement from baseline to 12 weeks on PANSS ([3]; 4 g/day) [%] | Change from baseline to 12 weeks in red cell concentration of AA ([4]; 1 g/d) | Change from baseline to 12 weeks in red cell concentration of AA ([4]; 2 g/d) | Change from baseline to 12 weeks in red cell concentration of AA ([4]; 4 g/d) [µg/g]
CCCCC/C=C\C/C=C\C/C=C\C/C=C\CCCC(=O)O [AA, arachidonic acid] | substantial further improvement | their condition deteriorated | – | – | – | – | – | –
CC/C=C\C/C=C\C/C=C\C/C=C\C/C=C\CCCC(=O)O [EPA, eicosapentaenoic acid] | – | – | 26.0 | – | – | – | – | –
CC/C=C\C/C=C\C/C=C\C/C=C\C/C=C\CCCC(=O)OCC [ethyl eicosapentaenoate] | – | – | 26.0 | 18.3 | 16.3 | +2.7 μg/g | +29.4 μg/g | -26.5
